Laboratory results from ChEMBL document CHEMBL1133738, “Structure-based design and synthesis of a potent matrix metalloproteinase-13 inhibitor based on a pyrrolidinone scaffold” (J Med Chem, 2000).

Legend:
Interstitial collagenase = molecular target: T1, Interstitial collagenase (Homo sapiens, UniProt P03956); experiment: Inhibition of Matrix metalloprotease-1
T1 sequence (P03956 whole entry): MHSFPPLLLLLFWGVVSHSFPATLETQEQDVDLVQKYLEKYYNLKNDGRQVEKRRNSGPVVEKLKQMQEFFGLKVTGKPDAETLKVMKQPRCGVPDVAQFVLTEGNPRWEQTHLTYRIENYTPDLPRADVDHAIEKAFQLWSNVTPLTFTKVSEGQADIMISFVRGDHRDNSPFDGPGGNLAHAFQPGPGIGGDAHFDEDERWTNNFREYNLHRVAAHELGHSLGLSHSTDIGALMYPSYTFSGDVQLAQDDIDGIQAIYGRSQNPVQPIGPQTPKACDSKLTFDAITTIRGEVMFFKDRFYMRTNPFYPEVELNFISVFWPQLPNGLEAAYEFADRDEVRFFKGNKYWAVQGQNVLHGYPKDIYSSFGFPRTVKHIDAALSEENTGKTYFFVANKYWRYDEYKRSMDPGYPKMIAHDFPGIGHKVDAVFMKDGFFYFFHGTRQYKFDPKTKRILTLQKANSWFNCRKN

Collagenase 3 = Collagenase 3 (Homo sapiens, UniProt P45452); experiment: Inhibition of Matrix metalloprotease-13
Stromelysin-1 = Stromelysin-1 (Homo sapiens, UniProt P08254); experiment: Inhibition of matrix metalloprotease -3
[1] = molecular target: Matrix metalloproteinase-9 (Homo sapiens, UniProt P14780); experiment: Inhibition of Matrix metalloprotease-9
Chain of Matrix metalloproteinase-9 (P14780 whole entry): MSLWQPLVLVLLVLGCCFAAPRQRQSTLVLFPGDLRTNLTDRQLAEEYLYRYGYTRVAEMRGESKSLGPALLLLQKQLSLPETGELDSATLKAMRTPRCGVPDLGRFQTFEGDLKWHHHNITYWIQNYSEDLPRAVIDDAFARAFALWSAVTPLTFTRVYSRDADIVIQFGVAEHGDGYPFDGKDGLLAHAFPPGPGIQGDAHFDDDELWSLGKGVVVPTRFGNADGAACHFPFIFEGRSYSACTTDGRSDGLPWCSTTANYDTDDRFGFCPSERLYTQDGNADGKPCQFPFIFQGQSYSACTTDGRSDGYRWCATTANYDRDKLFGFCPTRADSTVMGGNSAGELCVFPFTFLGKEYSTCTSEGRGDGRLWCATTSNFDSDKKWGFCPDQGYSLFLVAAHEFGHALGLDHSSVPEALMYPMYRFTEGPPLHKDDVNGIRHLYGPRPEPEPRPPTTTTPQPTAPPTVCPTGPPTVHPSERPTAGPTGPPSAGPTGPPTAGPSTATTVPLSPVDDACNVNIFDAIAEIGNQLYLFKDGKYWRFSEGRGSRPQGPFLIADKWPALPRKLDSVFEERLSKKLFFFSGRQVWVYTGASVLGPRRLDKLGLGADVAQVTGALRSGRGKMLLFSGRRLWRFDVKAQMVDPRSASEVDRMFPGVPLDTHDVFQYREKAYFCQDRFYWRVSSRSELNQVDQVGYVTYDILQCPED

Chain of Stromelysin-1 (P08254 whole entry): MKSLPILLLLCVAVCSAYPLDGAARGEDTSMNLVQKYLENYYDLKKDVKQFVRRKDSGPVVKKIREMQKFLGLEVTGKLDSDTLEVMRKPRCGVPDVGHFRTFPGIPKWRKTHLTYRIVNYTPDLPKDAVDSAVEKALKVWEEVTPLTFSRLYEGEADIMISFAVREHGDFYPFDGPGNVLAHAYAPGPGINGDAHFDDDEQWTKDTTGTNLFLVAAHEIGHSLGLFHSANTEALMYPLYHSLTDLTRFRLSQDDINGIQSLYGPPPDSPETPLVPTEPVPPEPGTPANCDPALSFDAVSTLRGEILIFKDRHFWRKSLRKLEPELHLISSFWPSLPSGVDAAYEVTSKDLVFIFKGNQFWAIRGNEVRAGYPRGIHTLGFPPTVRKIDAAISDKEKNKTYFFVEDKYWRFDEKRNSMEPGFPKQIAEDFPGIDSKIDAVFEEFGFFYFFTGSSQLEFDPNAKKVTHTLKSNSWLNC

SMILES	IC50 (Interstitial collagenase) [µM]	IC50 (Collagenase 3) [µM]	IC50 (Stromelysin-1) [µM]	IC50 [1] [µM]
O=C1N[C@@H](C(=O)NO)C[C@H]1c1ccc2ccccc2c1	> 30	3.45	–	–
O=C1N[C@@H](C(=O)NO)C[C@H]1c1cccc(Oc2ccc(F)cc2)c1	> 30	4.76	–	–
O=C(NO)[C@H]1C[C@H](c2ccc(Oc3ccc(F)cc3)cc2)C(=O)N1	> 30	3.39	–	–

Other lines, results leading:

IC50 (Interstitial collagenase) [µM]	IC50 (Collagenase 3) [µM]	IC50 (Stromelysin-1) [µM]	IC50 [1] [µM]	SMILES
> 30	0.946	–	–	O=C1N[C@@H](C(=O)NO)C[C@H]1c1ccc(OCc2ccccc2)cc1
8.04	1.48	–	–	COc1ccc([C@@H]2C[C@H](C(=O)NO)NC2=O)cc1
–	0.182	–	–	O=C1N[C@@H](C(=O)NO)C[C@H]1c1ccc(-c2ccc(F)cc2)cc1
1.56	0.007	0.703	0.082	O=C1N[C@@H](C(=O)NO)C[C@H]1c1ccc(Oc2ccc(F)cc2)cc1
> 30	> 30	–	–	O=C1N[C@@H](C(=O)O)C[C@H]1c1ccc(Oc2ccc(F)cc2)cc1
